Legend:
Format in all cases: physicochemical
[1] = Solubility C of the compound in n-decane at 5° C. (saturated solution, absorbance) and product εC; conditions: for Solubility C: in n-decane at 5° C., 24 hours, 0.1-μm filter; for εC: product of ε and saturation concentration C in n-decane at 5° C.
Method: The solubility C of each compound in n-decane was determined in the following manner. Each of compounds 1 to 11 and comparative compound 1 was added to n-decane until some of the compound came to remain undissolved, and the mixture was subjected to an ultrasonic treatment at 30° C. for 30 minutes.
After the addition, each mixture was subjected to a 30-minute ultrasonic treatment at 30° C. This mixture was allowed to stand at 5° C. for 24 hours and then subjected to centrifugal filtration with a 0.1-μm filter using a miniature centrifugal machine (centrifugal force, 5,200×g). The saturated solution obtained was diluted to an adequate concentration and examined for absorption spectrum with Hitachi Spectrophotometer U-4100 using a quartz cell having a measuring optical-path length of 10 mm. The concentration of each compound was determined from a relationship between the absorbance at the absorption maximum wavelength λmax (nm) and the molar extinction coefficient ε (L·mol^−1·cm^−1) determined beforehand, and the solubility C (mol·L^−1) thereof was calculated. Furthermore, the product εC of the molar extinction coefficient ε (L·mol^−1·cm^−1) and the solubility C (mol·L^−1) was determined.

[2] = Light fastness test (xenon light weatherometer, retention of absorbance); conditions: retention of absorbance at λmax; n-decane solution, xenon light 340 nm, 0.55 W/m^2, 40 hours, 33° C.
Method: The light fastness of compounds 1 to 3, 5, and 7 to 11 and comparative compound 1 was determined in the following manner. In 0.99 g of n-decane was dissolved 0.01 of each compound. This solution was introduced into a cell having an optical-path length of 0.004 mm, and this cell was sealed with an epoxy resin. Using a weatherometer (Atlas Ci4000), the cell was irradiated with xenon light (340 nm; irradiance, 0.55 W/m^2) for 40 hours. During the irradiation, the internal temperature of the test chamber was kept at 33° C.
The retention of each compound was calculated using the following equation.

[3] = Absorption spectrum of n-decane solution: solution color, absorption maximum wavelength λmax, molar extinction coefficient ε; conditions: for Absorption maximum wavelength λmax: 10 mm quartz cell; for ε (molar extinction coefficient): at λmax
Method: The solution color, absorption maximum wavelength (λmax), solubility C in 5° C. n-decane, molar extinction coefficient ε, and εC of each ink are summarized in Table 4.
One milligram of each of compound 1 and comparative compounds 1 and 2 was dissolved in 100 mL of the solvent, and the solution was examined for absorption spectrum with Hitachi Spectrophotometer U-4100 using a quartz cell having a measuring optical-path length of 10 mm. From the spectrum obtained, the absorption maximum wavelength λmax (nm) and the molar extinction coefficient E (L·mol^−1·cm^−1) were determined.

[4] = Solubility of solvent in water (gas chromatography); conditions: pure water, 25° C.
Method: Into a 110-mL vial were introduced 30 g of pure water and 8 g of the solvent. This vial was shaken for 4 hours at a frequency of 200 times per minute in a 25° C. thermostatic chamber. The liquid which had undergone the shaking was centrifuged (6,000×g; for 5 minutes), and the aqueous layer was sampled. The concentration of the solvent dissolved therein was determined by gas chromatography.

[5] = Relative permittivity of solvent (impedance meter method); conditions: 1 kHz, 22° C.
From the text: Precision LCR Meter 4284A, manufactured by Agilent Technologies, Inc., was used to make a measurement by the impedance meter method. […] Relative permittivity=(equivalent parallel capacitance)×(electrode spacing)/(electrode area)/(permittivity of vacuum (ε0))

SMILES | Solubility C [1] | εC [1] | Light fastness [2] | Absorption maximum wavelength λmax [3] [nm] | ε (molar extinction coefficient) [3] [L/mol/cm] | solubility at 4 h [4] [µg/mL] | relative permittivity [5]
CCCCc1ccc(N=Nc2sc(N=Nc3cc(OCC)c(N(CC(CC)CCCC)CC(CC)CCCC)cc3OCC)c(C#N)c2C)cc1 (stereo not drawn) [Compound 4] | ≧10.5 mass % | ≧6000 cm^−1 | A (retention of 100-90%) | 638 | 54000 | – | –
CCCCc1ccc(N=Nc2cc(C(=O)OCCC)c(N=Nc3ccc(N(CC(CC)CCCC)CC(CC)CCCC)cc3C)s2)cc1 (stereo not drawn) [Compound 7] | 17.4 mass % | 9500 cm⁻¹ | A (retention of 100-90%) | 590 | 51000 | – | –
CCCCC(CC)CN(CC(CC)CCCC)c1ccc(N=Nc2sc(N=Nc3ccc(CCC)cc3)c(C)c2C#N)c(NC(C)=O)c1 (stereo not drawn) [Compound 3] | ≧34.3 mass % | ≧20000 cm^−1 | A (retention of 100-90%) | 617 | 70000 | – | –
CCCCc1ccc(N=Nc2sc(N=Nc3ccc(N(CC(CC)CCCC)CC(CC)CCCC)cc3C)c(C#N)c2C)cc1 (stereo not drawn) [Compound 2] | 1.7 mass % | 1220 cm⁻¹ | A (retention of 100-90%) | 608 | 62000 | – | –
CCCCc1ccc(N=Nc2cc(C#N)c(N=Nc3sc(N(CC(CC)CCCC)CC(CC)CCCC)nc3C(C)(C)C)s2)c(C)c1 (stereo not drawn) [Compound 11] | ≧19.7 mass % | ≧12000 cm^−1 | A (retention of 100-90%) | 595 | 59000 | – | –
CCCCCCCCCC [n-decane] | – | – | – | – | – | ≤ 1 | 2.0
CCCCCCSc1nnc(N=Nc2cc(OC)c(N(Cc3ccc(C(C)(C)C)cc3)Cc3ccc(C(C)(C)C)cc3)cc2NC(C)=O)s1 [compound 1, reference compound] | 9.1 mass % | 4700 cm⁻¹ | D (retention of 49% or less) | 526 | 50000 | – | –
CCCCc1ccc(N=Nc2cc(C#N)c(N=Nc3sc(N(CC(CC)CCCC)CC(CC)CCCC)nc3C(C)(C)C)s2)cc1 (stereo not drawn) [Compound 10] | ≧15 mass % | ≧9000 cm^−1 | A (retention of 100-90%) | 595 | 57000 | – | –
CCCCCc1ccc(N=Nc2cc(C(=O)OCCC)c(N=Nc3ccc(N(CC(CC)CCCC)CC(CC)CCCC)cc3CC)s2)cc1 (stereo not drawn) [Compound 5] | ≧20.1 mass % | ≧10000 cm^−1 | A (retention of 100-90%) | 591 | 50000 | – | –

— patent US9708498B2, “Azo compound, ink containing azo compound, display including said ink and electronic paper” (MITSUBISHI CHEMICAL CORPORATION, priority 2012, dated 2017)
